Assay results reported in PubChem BioAssay (NCI).
Values joined by “and” are separate entries in the source; they are usually repeats but may differ in a detail not shown here. Equal entries are not always repeated.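 Method: 48-hour compound exposure of cells in 96-well plates, five concentrations, linear interpolation of endpoints. Here, GI50 denotes the concentration required for 50% inhibition of growth. TGI: total growth inhibition.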 Where a SMILES comes first, the peptide text is derived from it. [ ]: non-standard residue; d: D form. The star is where a group is joined. dTle = CC(C)(C)[C@@H](N)C(=O)O; 4Abz = Nc1ccc(C(=O)O)cc1; NHOH = ON*

Key:
Assay in all cases: NCI tumour cell line growth inhibition, 48 h
[1] = system: BT-549 breast
[2] = system: HS 578T breast
[3] = system: OVCAR-5 ovarian
[4] = system: OVCAR-8 ovarian
[5] = system: SF-539 CNS
[6] = system: SK-OV-3 ovarian
[7] = system: SN12C renal
[8] = system: SNB-75 CNS
[9] = system: U251 CNS
[10] = system: CCRF-CEM leukemia

Compound	GI50 [1]	TGI [1]	GI50 [2]	TGI [2]	GI50 [3]	TGI [3]	GI50 [4]	TGI [4]	GI50 [5]	TGI [5]	GI50 [6]	TGI [6]	GI50 [7]	TGI [7]	GI50 [8]	TGI [8]	GI50 [9]	TGI [9]	TGI [10]	GI50 [10]
NS(=O)(=O)CC1CC[CH-]CC1.[Cl-].[Cl-].[Cl-].[Cl-].[Cl-].[Sb+5].c1ccncc1	> 100 µM	> 100 µM	> 100 µM	> 100 µM	> 100 µM	> 100 µM	> 100 µM	> 100 µM	> 100 µM	> 100 µM	> 100 µM	> 100 µM	> 100 µM	> 100 µM	> 100 µM	> 100 µM	> 100 µM	> 100 µM	–	–
CCOC(=O)C(CC/C=C\c1ccccc1)N1CCC[C@H]1C(=O)OC (stereo not given in full)	–	–	–	–	–	> 100 µM	–	> 100 µM	–	> 100 µM	–	> 100 µM	–	> 100 µM	–	> 100 µM	–	> 100 µM	> 100 µM	–
N#CC1(C#N)C2C=CC(c3coc4cccc2c34)C1(C#N)C#N (stereo not given)	–	–	–	–	–	30.8 µM	–	10.4 µM	–	35.2 µM	–	31.7 µM	–	23.2 µM	–	35.3 µM	–	33.9 µM	6.71 µM	–
CC(=O)O[C@@]1(C)[C@@H](C)C(=O)O[C@@H]2CCN3CC=C(COC(=O)[C@]1(C)O)[C@H]23	–	–	–	–	–	> 100 µM	–	> 100 µM	–	> 100 µM	–	–	–	–	–	> 100 µM	–	> 100 µM	> 100 µM	–
C[C@@H](NC(=O)[C@H](NC(=O)[C@@H]1CCCN1C(=O)CNC(=O)c1ccc(N)cc1)C(C)(C)C)C(=O)NO (H-[4Abz]GP[dTle][dA]-{NHOH})	> 100 µM	> 100 µM	> 100 µM	> 100 µM	> 100 µM	> 100 µM	> 100 µM	> 100 µM	> 100 µM	> 100 µM	> 100 µM	> 100 µM	> 100 µM	> 100 µM	> 100 µM	> 100 µM	> 100 µM	> 100 µM	–	–
Cc1cccc(C(C)(C)C)c1NC(=O)CCc1nc(=S)[nH][nH]1	–	–	–	–	–	> 100 µM	–	> 100 µM	–	> 100 µM	–	> 100 µM	–	> 100 µM	–	> 100 µM	–	> 100 µM	> 100 µM	–
Cn1c(N)nc(=O)c2c1N(C1OC(CO)C(O)C1O)CN2Cc1ccccc1 (stereo not given)	–	–	–	–	–	> 100 µM	–	> 100 µM	–	> 100 µM	–	> 100 µM	–	> 100 µM	–	> 100 µM	–	> 100 µM	–	–
O=C(O)c1c(=O)cccc2ssc12	1.68 µM	3.12 µM	2.43 µM	5.54 µM	1.71 µM	3.45 µM	1.76 µM	3.18 µM	1.98 µM	3.84 µM	1.74 µM	3.26 µM	2.49 µM	6.32 µM	–	–	1.74 µM	3.16 µM	–	–
O=C1/C(=C/c2ccc(Cl)cc2)CCC/C1=C\c1ccc(Cl)cc1	–	–	3.43 µM	> 100 µM	> 100 µM	> 100 µM	3.64 µM	> 100 µM	7.85 µM	> 100 µM	9.84 µM	> 100 µM	6.06 µM	> 100 µM	> 100 µM	> 100 µM	2.66 µM	7.88 µM	> 100 µM	3.64 µM
Nc1ccc(-c2cccs2)cc1NC(=O)c1ccc(CCCC(=O)Nc2ccc(C3CC3N)cc2)cc1 (stereo not given)	2.69 µM	> 100 µM	7.93 µM	> 100 µM	–	–	1.65 µM	4.48 µM	2.42 µM	7.94 µM	4.37 µM	37.1 µM	–	–	1.65 µM	4.27 µM	1.6 µM	3.16 µM	–	–
CSc1snc2sc3c(Cl)nnnc3c12	–	–	–	–	–	31 µM	–	21 µM	–	32.1 µM	–	33.3 µM	–	28.7 µM	–	23.7 µM	–	28.6 µM	11 µM	–
O=C(O/N=C1/CCC/C1=C\c1ccccc1)c1ccc(Cl)c(Cl)c1	–	–	–	–	–	> 100 µM	–	> 100 µM	–	> 100 µM	–	> 100 µM	–	> 100 µM	–	> 100 µM	–	> 100 µM	> 100 µM	–
CC(C)=CCC/C(C)=C\CCC1(C)OC(=O)C2CC21 (stereo not given)	–	> 100 µM	> 100 µM and 36.5 µM	> 100 µM	–	> 100 µM	71.6 µM and 20.3 µM	> 100 µM and 45.5 µM	–	–	–	–	> 100 µM and 26.4 µM	> 100 µM and 64.2 µM	–	> 100 µM	51.5 µM and 24.1 µM	> 100 µM and 61.4 µM	–	–
O=C(CC(=O)c1cccc2ccccc12)C(=O)NC1C2CC3CC(C2)CC1C3 (stereo not given)	–	–	–	–	–	> 100 µM	–	> 100 µM	–	> 100 µM	–	> 100 µM	–	> 100 µM	–	–	–	> 100 µM	> 100 µM	–
